Results: patent US6426229B1, “Chelating agent and detergent comprising the same” (Mitsubishi Rayon Co., Ltd., priority 1995, dated 2002)

Assay: Compression strength (hardening property) of powder stored under load for 2 months
Format: physicochemical
Conditions: 20-30° C., relative humidity 40-70%
Protocol: Method for the Measurement of Compression Strength
(1) A test sample (500 g) is put in a poly-ethylene bag of 20 cm×20 cm in a room at a temperature of 20-30° C. and a relative humidity of 40-70%. The powder is levelled to an area of 20 cm×20 cm and air is forced out of the bag, and, then, the bag is sealed. This bag is further put in a kraft bag and this kraft bag is sealed.
(2) The kraft bag of (1) is placed horizontally on a flat plate and a plate is put thereon. […]
(3) With keeping the temperature of 20-30° C. and the relative humidity of 40-70%, the test sample is taken out after lapse of 2 months from the starting of application of load. Several test pieces (4 cm long×4 cm broad×2 cm high) are cut out from the sample.

[1] = Load 200 (table head [Kg]; text 200 g/cm^2)
[2] = Load 100 (table head [Kg]; text 100 g/cm^2)
[3] = Load 300 (table head [Kg]; text 300 g/cm^2)

| Compound | Compression strength after stored for 2 months [1] [Kg/cm^2] | Compression strength after stored for 2 months [2] [Kg/cm^2] | other results |
| --- | --- | --- | --- |
| O=C(O)CN(CCS(=O)(=O)O)CC(=O)O [Example 34, taurine-N,N-diacetic acid] | 1.2 |  |  |
| O=C([O-])CN(CC(=O)[O-])c1ccccc1C(=O)[O-].[Na+].[Na+].[Na+] [Example 27, trisodium salt of anthranilic acid-N,N-diacetic acid] | 1.0 |  |  |
| O=C([O-])C[C@@H](C(=O)[O-])N(CC(=O)[O-])CC(=O)[O-].[Na+].[Na+].[Na+].[Na+] [Example 3, tetrasodium salt of (S)-aspartic acid-N,N-diacetic acid] | 0.9 |  |  |
| O=C(O)CN(CCS(=O)(=O)O)CC(=O)O [Example 37, taurine-N,N-diacetic acid] |  | 1.0 |  |
| O=C([O-])C[C@H](NCCN[C@@H](CC(=O)[O-])C(=O)[O-])C(=O)[O-].[Na+].[Na+].[Na+].[Na+] [compound 17, tetrasodium (S,S)-ethylenediaminedisuccinate, reference compound] |  | 2.9 |  |
| O=C(O)C[C@H](NCCN[C@@H](CC(=O)O)C(=O)O)C(=O)O [Example 72, (S,S)-ethylenediaminedisuccinic acid] |  |  | Compression strength after stored for 2 months [3]: 1.3 Kg/cm^2 |
| O=C([O-])CN(CC(=O)[O-])c1ccccc1C(=O)[O-].[Na+].[Na+].[Na+] [Example 33, trisodium salt of anthranilic acid-N,N-diacetic acid] |  |  | Compression strength after stored for 2 months [3]: 0.9 Kg/cm^2 |
| O=C([O-])CCN[C@@H](CC(=O)[O-])C(=O)[O-].[Na+].[Na+].[Na+] [Example 6, trisodium salt of (S)-aspartic acid-N-monopropionic acid] |  | 1.2 |  |
| CN(CC(=O)O)CC(=O)O [Example 35, N-methyliminodiacetic acid] | 0.8 |  |  |
| O=C([O-])CCN[C@@H](CC(=O)[O-])C(=O)[O-].[Na+].[Na+].[Na+] [Example 2, trisodium salt of (S)-aspartic acid-N-monopropionic acid] | 1.0 |  |  |
| O=C([O-])CN[C@@H](CC(=O)[O-])C(=O)[O-].[Na+].[Na+].[Na+] [Example 5, trisodium salt of (S)-aspartic acid-N-monoacetic acid] |  | 1.2 |  |
| O=C([O-])C[C@@H](C(=O)[O-])N(CC(=O)[O-])CC(=O)[O-].[Na+].[Na+].[Na+].[Na+] [Example 7, tetrasodium salt of (S)-aspartic acid-N,N-diacetic acid] |  | 1.3 |  |
| O=C(O)CC(NCCCNC(CC(=O)O)C(=O)O)C(=O)O (stereo not shown) [compound 23, 1,3-propanediaminedisuccinic acid, reference compound] |  | 2.7 |  |
| O=C([O-])CN[C@@H](CC(=O)[O-])C(=O)[O-].[Na+].[Na+].[Na+] [compound 1, trisodium salt of (S)-aspartic acid-N-monoacetic acid, reference compound] |  | 2.6 |  |
| O=C(O)CCN[C@@H](CC(=O)O)C(=O)O [Example 22, (S)-aspartic acid-N-monopropionic acid] |  |  | Compression strength after stored for 2 months [3]: 0.9 Kg/cm^2 |
| CN(CC(=O)O)CC(=O)O [compound 13, N-methyliminodiacetic acid, reference compound] |  | 2.7 |  |
| O=C([O-])C[C@H](NCCN[C@@H](CC(=O)[O-])C(=O)[O-])C(=O)[O-].[Na+].[Na+].[Ni+2] [compound 28, nickel disodium (S,S)-ethylenediaminedisuccinate, reference compound] |  | 2.5 |  |
| O=C(O)C[C@H](NCCN[C@@H](CC(=O)O)C(=O)O)C(=O)O [Example 61, ethylenediaminedisuccinic acid] | 0.9 |  |  |
| O=C([O-])C[C@H](NCC(O)CN[C@@H](CC(=O)[O-])C(=O)[O-])C(=O)[O-].[Na+].[Na+].[Na+].[Na+] [Example 60, tetrasodium (S,S)-2-hydroxy-1,3-propanediaminedisuccinate] |  |  | Compression strength after stored for 2 months [3]: 1.2 Kg/cm^2 |
| O=C(O)C[C@@H](C(=O)O)N(CC(=O)O)CC(=O)O [Example 19, (S)-aspartic acid-N,N-diacetic acid] |  | 1.1 |  |
| CN(CC(=O)[O-])CC(=O)[O-].[Na+].[Na+] [Example 29, disodium N-methyliminodiacetate] |  | 1.2 |  |
| O=C(O)C[C@H](NCC(O)CN[C@@H](CC(=O)O)C(=O)O)C(=O)O [Example 65, (S,S)-2-hydroxy-1,3-propanediaminedisuccinic acid] | 1.0 |  |  |

| Compound | Compression strength after stored for 2 months [1] [Kg/cm^2] | Compression strength after stored for 2 months [2] [Kg/cm^2] | other results |
| --- | --- | --- | --- |
| O=C(O)CN(CC(=O)O)c1ccccc1C(=O)O [Example 39, anthranilic acid-N,N-diacetic acid] |  | 1.2 |  |
| O=C([O-])C[C@H](NCCCN[C@@H](CC(=O)[O-])C(=O)[O-])C(=O)[O-].[Na+].[Na+].[Na+].[Na+] [Example 59, tetrasodium (S,S)-1,3-propanediaminedisuccinate] |  |  | Compression strength after stored for 2 months [3]: 1.1 Kg/cm^2 |
| C[C@@H](C(=O)O)N(CC(=O)O)CC(=O)O [Example 16, (S)-α-alanine-N,N-diacetic acid] | 0.8 |  |  |
| O=C(O)CC(NCCCNC(CC(=O)O)C(=O)O)C(=O)O (stereo not shown) [Example 63, 1,3-propanediaminedisuccinic acid] | 1.1 |  |  |
| O=C(O)C[C@@H](C(=O)O)N(CC(=O)O)CC(=O)O [Example 15, (S)-aspartic acid-N,N-diacetic acid] | 0.9 |  |  |
| O=C(O)C[C@@H](C(=O)O)N(CC(=O)O)CC(=O)O [Example 23, (S)-aspartic acid-N,N-diacetic acid] |  |  | Compression strength after stored for 2 months [3]: 1.0 Kg/cm^2 |
| O=C(O)C[C@H](NCCCN[C@@H](CC(=O)O)C(=O)O)C(=O)O [compound 24, (S,S)-1,3-propanediaminedisuccinic acid, reference compound] |  | 2.8 |  |
| O=C(O)C[C@H](NCCN[C@@H](CC(=O)O)C(=O)O)C(=O)O [compound 21, ethylenediaminedisuccinic acid, reference compound] |  | 2.8 |  |
| O=C(O)C[C@H](NCCCN[C@@H](CC(=O)O)C(=O)O)C(=O)O [Example 64, (S,S)-1,3-propanediaminedisuccinic acid] | 0.9 |  |  |
| O=C([O-])C[C@H](NCCN[C@@H](CC(=O)[O-])C(=O)[O-])C(=O)[O-].[Cu+2].[Na+].[Na+] [Example 80, copper disodium (S,S)-ethylenediaminedisuccinate] | 1.0 |  |  |
| O=C([O-])C[C@H](NCCN[C@@H](CC(=O)[O-])C(=O)[O-])C(=O)[O-].[Na+].[Na+].[Ni+2] [Example 81, nickel disodium (S,S)-ethylenediaminedisuccinate] | 1.2 |  |  |
| O=C([O-])CCN[C@@H](CC(=O)[O-])C(=O)[O-].[Na+].[Na+].[Na+] [Example 10, trisodium salt of (S)-aspartic acid-N-monopropionic acid] |  |  | Compression strength after stored for 2 months [3]: 1.0 Kg/cm^2 |
| O=C([O-])CC(NCCCNC(CC(=O)[O-])C(=O)[O-])C(=O)[O-].[Na+].[Na+].[Na+].[Na+] (stereo not shown) [Example 58, tetrasodium 1,3-propanediaminedisuccinate] |  |  | Compression strength after stored for 2 months [3]: 1.0 Kg/cm^2 |
| iron salt of anthranilic acid-N,N-diacetic acid [Example 45] |  |  | Compression strength after stored for 2 months [3]: 0.8 Kg/cm^2 |
| O=C(O)C[C@@H](C(=O)O)N(CC(=O)O)CC(=O)O [compound 7, (S)-aspartic acid-N,N-diacetic acid, reference compound] |  | 2.3 |  |
| O=C(O)C[C@H](NCC(O)CN[C@@H](CC(=O)O)C(=O)O)C(=O)O [Example 75, (S,S)-2-hydroxy-1,3-propanediaminedisuccinic acid] |  |  | Compression strength after stored for 2 months [3]: 1.0 Kg/cm^2 |
| O=C([O-])C[C@H](NCC(O)CN[C@@H](CC(=O)[O-])C(=O)[O-])C(=O)[O-].[Na+].[Na+].[Na+].[Na+] [Example 55, tetrasodium (S,S)-2-hydroxy-1,3-propanediaminedisuccinate] |  | 1.2 |  |
| O=C([O-])C[C@H](NCCN[C@@H](CC(=O)[O-])C(=O)[O-])C(=O)[O-].[Na+].[Na+].[Na+].[Na+] [Example 57, tetrasodium (S,S)-ethylenediaminedisuccinate] |  |  | Compression strength after stored for 2 months [3]: 0.9 Kg/cm^2 |
| O=C([O-])CN(CC(=O)[O-])c1ccccc1C(=O)[O-].[Na+].[Na+].[Na+] [compound 11, trisodium salt of anthranilic acid-N,N-diacetic acid, reference compound] |  | 2.5 |  |
| O=C([O-])C[C@H](NCCCN[C@@H](CC(=O)[O-])C(=O)[O-])C(=O)[O-].[Cu+2].[Na+].[Na+] [Example 83, copper disodium (S,S)-1,3-propanediaminedisuccinate] | 1.3 |  |  |
| O=C(O)C[C@H](NCCN[C@@H](CC(=O)O)C(=O)O)C(=O)O [Example 67, (S,S)-ethylenediaminedisuccinic acid] |  | 1.1 |  |
